Target: T1, Plk1 (Homo sapiens, UniProt P53350)
T1 construct: in the presence of 15 nM Plk1 (A20-K338)
Assay: Plk1 inhibition assay (radioactive-phosphate incorporation)
Type: biochemical
Conditions: Ki(app) from [γ-33P]ATP incorporation, 25° C.
Procedure: Compounds of the present invention may be evaluated as inhibitors of human PLK kinase using the following assays.
Compounds were screened for their ability to inhibit Plk1 using a radioactive-phosphate incorporation assay. Assays were carried out in a mixture of 25 mM HEPES (pH 7.5), 10 mM MgCl2, and 1 mM DTT. Final substrate concentrations were 50 μM [γ-33P]ATP (136 mCi 33P ATP/mmol ATP, Amersham Pharmacia Biotech/Sigma Chemicals) and 10 μM peptide (SAM68 protein Δ332-443). Assays were carried out at 25° C. in the presence of 15 nM Plk1 (A20-K338). An assay stock buffer solution was prepared containing all of the reagents listed above, with the exception of ATP and the test compound of interest. 30 μL of the stock solution was placed in a 96 well plate followed by addition of 2 μL of DMSO stock containing serial dilutions of the test compound (typically starting from a final concentration of 10 μM with 2-fold serial dilutions) in duplicate (final DMSO concentration 5%). The plate was pre-incubated for 10 minutes at 25° C. and the reaction initiated by addition of 8 μL [γ33P]ATP (final concentration 50 μM).
(§1) The reaction was stopped after 60 minutes by the addition of 100 μL 0.14M phosphoric acid. A multiscreen phosphocellulose filter 96-well plate (Millipore, Cat no. MAPHN0B50) was pretreated with 100 μL 0.2M phosphoric acid prior to the addition of 125 μL of the stopped assay mixture. The plate was washed with 4×200 μL 0.2M phosphoric acid. After drying, 100 μL Optiphase ‘SuperMix’ liquid scintillation cocktail (Perkin Elmer) was added to the well prior to scintillation counting (1450 Microbeta Liquid Scintillation Counter, Wallac).
After removing mean background values for all of the data points, Ki(app) data were calculated from non-linear regression analysis of the initial rate data using the Prism software package (GraphPad Prism version 3.0cx for Macintosh, GraphPad Software, San Diego Calif., USA).
Compounds were screened for their ability to inhibit Plk1 using a radioactive-phosphate incorporation assay. Assays were carried out in a mixture of 25 mM HEPES (pH 7.5), 10 mM MgCl2, 0.1% BSA, and 2 mM DTT. Final substrate concentrations were 150 μM (350 μM for determining values of <1 nM) [γ-33P]ATP (115 mCi 33P ATP/mmol ATP, Amersham Pharmacia Biotech/Sigma Chemicals) and 300 μM (450 μM for determining values of <1 nM) peptide (KKKISDELMDATFADQEAK) SEQ. ID NO. 1. Assays were carried out at 25° C. in the presence of 4 nM (1 nM for determining values of <1 nM) Plk1. An assay stock buffer solution was prepared containing all of the reagents listed above, with the exception of ATP and the test compound of interest. 30 μL of the stock solution was placed in a 96 well plate followed by addition of 2 μL of DMSO stock containing serial dilutions of the test compound (typically starting from a final concentration of 10 μM with 2-fold serial dilutions) in duplicate (final DMSO concentration 5%). The plate was pre-incubated for 10 minutes at 25° C. and the reaction initiated by addition of 8 μl [γ-33P]ATP (final concentration 150 μM (350 μM for determining values of <1 nM))).
as §1, with “90” for “60”, “minutes (240 minutes for determining values of <1 nM)” for “minutes”

T1 sequence (P53350 20-338): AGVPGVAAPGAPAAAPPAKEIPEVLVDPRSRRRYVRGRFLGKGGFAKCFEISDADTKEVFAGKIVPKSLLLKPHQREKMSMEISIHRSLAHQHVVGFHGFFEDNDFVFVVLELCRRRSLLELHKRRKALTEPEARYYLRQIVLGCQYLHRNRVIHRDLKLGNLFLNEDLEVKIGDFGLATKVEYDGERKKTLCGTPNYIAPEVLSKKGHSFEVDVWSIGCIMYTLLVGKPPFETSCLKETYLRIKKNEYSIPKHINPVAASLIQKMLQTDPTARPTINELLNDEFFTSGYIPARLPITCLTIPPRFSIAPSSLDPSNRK

Ki [nM]	SMILES
< 10	CC[C@@H]1c2nncn2-c2cnc(Nc3ccc(C(=O)NC)cc3OC)nc2N1C1CCCC1 [Compound I-1, 4-((R)-5-cyclopentyl-4-ethyl-4,5-dihydro-[1,2,4]triazolo[4,3-f]pteridin-7-ylamino)-3-methoxy-N-methylbenzamide]
< 10	CC[C@@H]1c2nncn2-c2cnc(Nc3ccc(C(=O)NC4CC4)cc3F)nc2N1C1CCCC1 [Compound I-14, (R)-4-(5-cyclopentyl-4-ethyl-4,5-dihydro-[1,2,4]triazolo[4,3-f]pteridin-7-ylamino)-N-cyclopropyl-3-fluorobenzamide]
< 10	CC[C@@H]1c2nncn2-c2cnc(Nc3ccncc3)nc2N1C1CCCC1 [Compound I-23, (R)-5-cyclopentyl-4-ethyl-N-(pyridin-4-yl)-4,5-dihydro-[1,2,4]triazolo[4,3-f]pteridin-7-amine]
< 10	CC[C@@H]1c2nncn2-c2cnc(Nc3ccc(C(=O)NC)cc3OC)nc2N1C1CCC1 [Compound I-29, (R)-4-(5-cyclobutyl-4-ethyl-4,5-dihydro-[1,2,4]triazolo[4,3-f]pteridin-7-ylamino)-3-methoxy-N-methylbenzamide]
< 10	CC[C@@H]1c2nncn2-c2cnc(Nc3ccc(N4CCN(C)CC4)cc3)nc2N1C1CCCC1 [Compound I-32, (R)-5-cyclopentyl-4-ethyl-N-(4-(4-methylpiperazin-1-yl)phenyl)-4,5-dihydro-[1,2,4]triazolo[4,3-f]pteridin-7-amine]
< 10	CC[C@@H]1c2nncn2-c2cnc(Nc3ccc(C(=O)NC4CC4)s3)nc2N1C1CCCC1 [Compound I-15, (R)-5-(5-cyclopentyl-4-ethyl-4,5-dihydro-[1,2,4]triazolo[4,3-f]pteridin-7-ylamino)-N-cyclopropylthiophene-2-carboxamide]
< 10	CC[C@@H]1c2nncn2-c2cnc(Nc3ccc(C(=O)N4CC[C@H](F)C4)cc3OC)nc2N1C1CCCC1 [Compound I-12, (4-((R)-5-cyclopentyl-4-ethyl-4,5-dihydro-[1,2,4]triazolo[4,3-f]pteridin-7-ylamino)-3-methoxyphenyl)((S)-3-fluoropyrrolidin-1-yl)methanone]
< 10	CC[C@@H]1c2nncn2-c2cnc(Nc3ccc(N4CCOCC4)cc3)nc2N1C1CCCC1 [Compound I-34, (R)-5-cyclopentyl-4-ethyl-N-(4-morpholinophenyl)-4,5-dihydro-[1,2,4]triazolo[4,3-f]pteridin-7-amine]
< 10	CC[C@@H]1c2nncn2-c2cnc(Nc3ccc(C(=O)NC4CC4)cc3OC)nc2N1C1CCCC1 [Compound I-8, (R)-4-(5-cyclopentyl-4-ethyl-4,5-dihydro-[1,2,4]triazolo[4,3-f]pteridin-7-ylamino)-N-cyclopropyl-3-methoxybenzamide]
< 10	CC[C@@H]1c2nncn2-c2cnc(Nc3ccc(C(=O)N(C)C)cc3C)nc2N1C1CCCC1 [Compound I-5, 4-((R)-5-cyclopentyl-4-ethyl-4,5-dihydro-[1,2,4]triazolo[4,3]pteridin-7-ylamino)-N,N,3-trimethylbenzamide]
< 10	CCNC(=O)c1ccc(Nc2ncc3c(n2)N(C2CCCC2)[C@H](CC)c2nncn2-3)c(F)c1 [Compound I-19, (R)-4-(5-cyclopentyl-4-ethyl-4,5-dihydro-[1,2,4]triazolo[4,3-f]pteridin-7-ylamino)-N-ethyl-3-fluorobenzamide]
< 10	CC[C@@H]1c2nccn2-c2cnc(Nc3ccc(C(=O)NC)cc3OC)nc2N1C1CCCC1 [Compound I-7, 4-((R)-5-cyclopentyl-6-ethyl-5,6-dihydroimidazo[1,2)pteridin-3-ylamino)-3-methoxy-N-methylbenzamide]
< 10	CC[C@@H]1c2nncn2-c2cnc(Nc3ccc(F)cc3)nc2N1C1CCCC1 [Compound I-35, (R)-5-cyclopentyl-4-ethyl-N-(4-fluorophenyl)-4,5-dihydro-[1,2,4]triazolo[4,3-f]pteridin-7-amine]
< 10	CC[C@@H]1c2nncn2-c2cnc(Nc3ccc(C(=O)NC)cc3F)nc2N1C1CCCC1 [Compound I-16, (R)-4-(5-cyclopentyl-4-ethyl-4,5-dihydro-[1,2,4]triazolo[4,3-f]pteridin-7-ylamino)-3-fluoro-N-methylbenzamide]
< 10	CC[C@@H]1c2nncn2-c2cnc(Nc3ccc(C(F)(F)F)cc3F)nc2N1C1CCCC1 [Compound I-20, (R)-5-cyclopentyl-4-ethyl-N-(2-fluoro-4-(trifluoromethyl)phenyl)-4,5-dihydro-[1,2,4]triazolo[4,3-f]pteridin-7-amine]
< 10	CC[C@@H]1c2nncn2-c2cnc(Nc3ccc(C(=O)NC4CC(F)(F)C4)cc3OC)nc2N1C1CCCC1 [Compound I-17, (R)-4-(5-cyclopentyl-4-ethyl-4,5-dihydro-[1,2,4]triazolo[4,3-f]pteridin-7-ylamino)-N-(3,3-difluorocyclobutyl)-3-methoxybenzamide]
< 10	CC[C@@H]1c2nncn2-c2cnc(Nc3ccc(C(=O)NC4CCCC4)cc3OC)nc2N1C1CCCC1 [Compound I-10, (R)—N-cyclopentyl-4-(5-cyclopentyl-4-ethyl-4,5-dihydro-[1,2,4]triazolo[4,3-f]pteridin-7-ylamino)-3-methoxybenzamide]
< 10	CC[C@@H]1c2nncn2-c2cnc(Nc3ccc(N4CCCC4)cc3)nc2N1C1CCCC1 [Compound I-42, (R)-5-cyclopentyl-4-ethyl-N-(4-(pyrrolidin-1-yl)phenyl)-4,5-dihydro-[1,2,4]triazolo[4,3-f]pteridin-7-amine]
< 10	CC[C@@H]1c2nncn2-c2cnc(Nc3ccc(C(=O)NC)cc3C(F)F)nc2N1C1CCCC1 [Compound I-24, (R)-4-(5-cyclopentyl-4-ethyl-4,5-dihydro-[1,2,4]triazolo[4,3-f]pteridin-7-ylamino)-3-(difluoromethyl)-N-methylbenzamide]
< 10	CC[C@@H]1c2nncn2-c2cnc(Nc3cccnc3)nc2N1C1CCCC1 [Compound I-25, (R)-5-cyclopentyl-4-ethyl-N-(pyridin-3-yl)-4,5-dihydro-[1,2,4]triazolo[4,3-f]pteridin-7-amine]
< 10	CCNC(=O)c1ccc(Nc2ncc3c(n2)N(C2CCCC2)[C@H](CC)c2nncn2-3)c(OC)c1 [Compound I-18, (R)-4-(5-cyclopentyl-4-ethyl-4,5-dihydro-[1,2,4]triazolo[4,3-f]pteridin-7-ylamino)-N-ethyl-3-methoxybenzamide]
< 10	CC[C@@H]1c2nncn2-c2cnc(Nc3ccc(-n4cccn4)cc3)nc2N1C1CCCC1 [Compound I-39, (R)—N-(4-(1H-pyrazol-1-yl)phenyl)-5-cyclopentyl-4-ethyl-4,5-dihydro-[1,2,4]triazolo[4,3-f]pteridin-7-amine]
10 to 100	CC[C@@H]1c2nncn2-c2cnc(NCc3ccccc3)nc2N1C1CCCC1 [Compound I-31, (R)—N-benzyl-5-cyclopentyl-4-ethyl-4,5-dihydro-[1,2,4]triazolo[4,3-f]pteridin-7-amine]
< 10	CC[C@@H]1c2nncn2-c2cnc(Nc3ccc(N4CCN(C)CC4)nc3)nc2N1C1CCCC1 [Compound I-41, (R)-5-cyclopentyl-4-ethyl-N-(6-(4-methylpiperazin-1-yl)pyridin-3-yl)-4,5-dihydro-[1,2,4]triazolo[4,3-f]pteridin-7-amine]
< 10	CC[C@@H]1c2nncn2-c2cnc(Nc3ccc(C(=O)NC4CCN(C)CC4)cc3OC)nc2N1C1CCCC1 [Compound I-2, 4-((R)-5-cyclopentyl-4-ethyl-4,5-dihydro-[1,2,4]triazolo[4,3-f]pteridin-7-ylamino)-3-methoxy-N-(1-methylpiperidin-4-yl)benzamide]

— patent US8524902B2, “[1,2,4]triazolo[4,3-f]pteridines useful as inhibitors of protein kinases” (Vertex Pharmaceuticals Incorporated, priority 2006, dated 2013)
